The record followed here is BindingDB's records for doi:10.1016/s0960-894x(99)00332-7 (Warner-Lambert, 1999).

In assay [1] the target is T1, Human immunodeficiency virus type 1 protease (Human immunodeficiency virus 1, UniProt Q72874). As to the kind of experiment: Inhibitory activity was evaluated against human immunodeficiency virus type 1(HIV-1) protease at pH 6.2.
In assay [2] the target is T1, Human immunodeficiency virus type 1 protease. As to the kind of experiment: ChEBML_79977. Particulars: pH 4.7. The procedure:
Inhibitory activity was evaluated against human immunodeficiency virus type 1(HIV-1) protease at pH 4.7

Take `CC(C)(C)c1oc2ccccc2c1SC1C(=O)CC(CCc2ccccc2)(c2ccccc2)OC1=O` (centres undefined) [3-(2-tert-Butyl-benzofuran-3-ylsulfanyl)-4-hydroxy-6-phenethyl-6-phenyl-5,6-dihydro-pyran-2-one]: the IC50 in assay [1] stood at 211 nM.
For `CCc1c(SC2C(=O)CC(CCc3ccccc3)(c3ccccc3)OC2=O)sc2ccccc12` (centres undefined) [3-(3-Ethyl-benzo[b]thiophen-2-ylsulfanyl)-4-hydroxy-6-phenethyl-6-phenyl-5,6-dihydro-pyran-2-one], in assay [2], the IC50 was found to be 28 nM.
As to `CC(C)(C)c1cc2c(cc1SC1C(=O)CC(CCc3ccccc3)(c3ccccc3)OC1=O)CCCC2` (centres undefined) [3-(3-tert-Butyl-5,6,7,8-tetrahydro-naphthalen-2-ylsulfanyl)-4-hydroxy-6-phenethyl-6-phenyl-5,6-dihydro-pyran-2-one], in assay [2], the IC50 worked out at 28 nM.
In turn, `CC(C)(C)c1cc2c(cc1SC1C(=O)CC(CCc3ccccc3)(c3ccccc3)OC1=O)CCC2` (centres undefined) [3-(6-tert-Butyl-indan-5-ylsulfanyl)-4-hydroxy-6-phenethyl-6-phenyl-5,6-dihydro-pyran-2-one] gave a half-inhibitory concentration (IC50) in assay [1] of 130 nM.

Broadly, the IC50 is the midpoint of a concentration-inhibition curve. Low values mean greater potency, high ones weaker potency.
